Laboratory results as given in patent publication US20060084657A1, “Piperazine derivative” (priority 2001, published 2006).

Target: T1, human MC4 receptor (Homo sapiens, UniProt P32245)
T1 construct: purchased BioLinks K.K; host or cells: HEK-293 cell membranes
Test: Test for binding to MC4 receptor
Details: HEK-293 cell membranes expressing the human MC4 receptor; [125I]Nle4-D-Phe7-α-MSH 0.2 nM; 25° C. for 120 minutes
Experimental: The test for binding to MC4 receptor was carried out according to the method as described in Pharmacology & Toxicology, 79, 161-165, 1996. HEK-293 cell membranes expressing the human MC4 receptor were purchased from BioLinks K.K. The cell membranes were homogenized in a 50 mM Tris-hydrochloric buffer (pH 7.4) containing 2 mM ethylenediaminetetraacetic acid, 10 mM calcium chloride and 100 μM phenymethylsulfonyl fluoride. The homogenate was centrifuged at 48,000×g at 4° C. for 20 minutes. The precipitate obtained by centrifugation was re-homogenized in the same buffer, and then the homogenate was centrifuged at 48,000×g at 4° C. for 20 minutes. This manipulation was repeated twice. The precipitates were suspended in a 50 mM Tris-hydrochloric acid buffer (pH 7.4) containing 2 mM ethylenediaminetetraacetic acid, 10 mM calcium chloride, 100 μM phenymethylsulfonyl fluoride and 0.1% bovine serum albumin so as to provide a protein concentration of 100 μg/ml. The suspension was used for the binding test as a crude membrane specimen. The crude membrane specimen (0.25 ml, 25 μg protein) was allowed to react with [^125I]Nle^4-D-Phe^7-α-MSH (final concentration of 0.2 nM) at 25° C. for 120 minutes. […] Radioactivity on the filter papers was measured using a γ-counter. […] IC50 value was calculated from inhibition curve at concentrations of from 10^−8 to 10^−5.

T1 sequence (P32245 whole entry): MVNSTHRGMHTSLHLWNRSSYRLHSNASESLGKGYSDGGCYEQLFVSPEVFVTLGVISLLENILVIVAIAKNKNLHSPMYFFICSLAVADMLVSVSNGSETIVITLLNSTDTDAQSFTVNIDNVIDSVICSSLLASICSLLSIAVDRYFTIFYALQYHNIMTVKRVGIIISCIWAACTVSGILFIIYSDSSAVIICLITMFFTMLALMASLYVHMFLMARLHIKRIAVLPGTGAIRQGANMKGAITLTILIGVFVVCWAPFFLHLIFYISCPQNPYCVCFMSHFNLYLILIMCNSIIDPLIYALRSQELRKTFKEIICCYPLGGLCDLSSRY

SMILES: CC(C)N1CCN(C(CN2CCN(CCCc3sc(-c4ccccc4)nc3-c3ccccc3)CC2)c2ccc(F)cc2)CC1 (stereo not shown) [Compound 86]
- IC50: 162 nM
